Test results as given in publication PMC4724249 (European journal of medicinal chemistry, 2015).

Columns and labels:
[1] = test system: MRSA CBD-635 and P. aeruginosa USF-1423; assay: MIC of reference antibiotics at the start of serial passage; format: cell-based; details: organism not stated in the legend of Figure 4
[2] = test system: a variety of fungi and Gram-positive bacteria; details: cited from earlier work

Row | Molecule | MIC of reference antibiotic [1] | MICs [2]
1 | CN[C@H](CC(C)C)C(=O)N[C@H]1C(=O)N[C@@H](CC(N)=O)C(=O)N[C@H]2C(=O)N[C@H]3C(=O)N[C@H](C(=O)N[C@H](C(=O)O)c4cc(O)cc(O)c4-c4cc3ccc4O)[C@H](O)c3ccc(c(Cl)c3)Oc3cc2cc(c3O[C@@H]2O[C@H](CO)[C@@H](O)[C@H](O)[C@H]2O[C@H]2C[C@](C)(N)[C@H](O)[C@H](C)O2)Oc2ccc(cc2Cl)[C@H]1O [Vancomycin] | 7 µM | 
2 | O=C(O)c1cn(C2CC2)c2cc(N3CCNCC3)c(F)cc2c1=O [ciprofloxacin] | 30 µM | 
3 | fusaricidin A |  | 0.78 to 3.12 µg/mL
